Experimental data reported in publication PMC3736852 (Endocrine-related cancer, 2012).

Target: T1, Na+/I− symporter (NIS) (Rattus norvegicus, UniProt Q63008)
T1 sequence (Q63008 1-618): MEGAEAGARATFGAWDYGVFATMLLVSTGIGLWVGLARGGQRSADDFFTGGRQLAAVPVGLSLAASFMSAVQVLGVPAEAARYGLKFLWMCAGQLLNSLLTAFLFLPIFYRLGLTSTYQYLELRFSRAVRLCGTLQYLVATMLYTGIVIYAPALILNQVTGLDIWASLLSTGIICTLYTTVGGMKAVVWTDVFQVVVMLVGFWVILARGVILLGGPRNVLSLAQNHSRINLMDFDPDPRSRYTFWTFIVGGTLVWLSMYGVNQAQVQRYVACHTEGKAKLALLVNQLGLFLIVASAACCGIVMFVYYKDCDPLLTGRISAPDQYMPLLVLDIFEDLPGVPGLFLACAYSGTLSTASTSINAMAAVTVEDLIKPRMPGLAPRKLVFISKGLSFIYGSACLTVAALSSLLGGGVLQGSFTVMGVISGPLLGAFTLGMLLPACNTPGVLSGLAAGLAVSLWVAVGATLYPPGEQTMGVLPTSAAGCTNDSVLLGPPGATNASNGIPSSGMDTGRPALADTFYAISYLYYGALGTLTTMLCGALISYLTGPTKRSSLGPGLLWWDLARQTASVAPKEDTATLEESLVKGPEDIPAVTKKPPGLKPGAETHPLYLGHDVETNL
Test: inhibition of NIS-mediated […] radioiodide uptake
Assay type: cell-based

SMILES: [O-][Cl+3]([O-])([O-])O [perchlorate]
- IC50: 3 µM
